For `CCCCC1C(O)C(N2CCCc3ccccc32)c2ccccc2N1C(=O)c1ccc(OC)c(OC)c1` (stereo not drawn) [Example 76, 2,3-trans-2,4-cis-2-Butyl-1-(3,4-dimethoxybenzoyl)-3-hydroxy-4-(1,2,3,4-tetrahydroquinolin-1-yl)-1,2,3,4-tetrahydroquinoline], the melting point (usually the temperature, or range, at which the solid turns liquid) was in the range of 200 to 202 °C.

For `COc1ccc(C(=O)N2CCC(N3CC4(CCN(Cc5ccccc5)CC4)c4ccccc43)c3ccccc32)cc1OC` (stereo not drawn), the melting point was in the range of 155 to 157 °C.

`COc1ccc(C(=O)N2c3ccccc3C(N3CCCc4cc(OCc5ccccc5)ccc43)CC2C)cc1OC` (stereo not drawn) (hydrate or solvate) [Example 101, 2,4-cis-4-(6-Benzyloxy-1,2,3,4-tetrahydroquinolin-1-yl)-1-(3,4-dimethoxybenzoyl)-2-methyl-1,2,3,4-tetrahydroquinoline]: the melting point was 164 to 165 °C.

As to `COc1ccc(C(=O)N2CCC(N3CCc4ccccc43)c3ccccc32)cc1OC` (stereo not drawn) [Example 2, 4-(2,3-Dihydro-1H-indol-1-yl)-1-(3,4-dimethoxybenzoyl)-1,2,3,4-tetrahydroquinoline], the melting point fell in the range of 121 to 123 °C.

For `CCOc1ccc(C(=O)N2c3ccccc3C(n3c4ccccc4c4ccccc43)CC2C)cc1OC` (stereo not drawn) (hydrate or solvate) [Example 143, 2,4-cis-4-(9H-9-Carbazolyl)-1-(4-ethoxy-3-methoxybenzoyl)-2-methyl-1,2,3,4-tetrahydroquinoline], the melting point lay in the range of 214 to 215 °C.

`CCOc1ccc(C(=O)N2c3ccccc3C(N3CCCc4ccccc43)CC2C)cc1OC` (stereo not drawn) (hydrate or solvate) [Example 103, 1-(4-Ethoxy-3-methoxybenzoyl)-2-methyl-4-(1,2,3,4-tetrahydroquinolin-1-yl)-1,2,3,4-tetrahydroquinoline] gave a melting point of 140 to 142 °C.

For `COc1ccc(C(=O)N2c3ccccc3C(N3CCc4ccccc43)CC2C)cc1OC` (stereo not drawn) [Example 61, 4-(2,3-Dihydro-1H-indol-1-yl)-1-(3,4-dimethoxybenzoyl)-2-methyl-1,2,3,4-tetrahydroquinoline], the melting point was 147 to 148 °C.

As for `COc1ccc(C(=O)N2c3ccccc3C(N3CCSc4ccccc43)CC2C)cc1OC` (stereo not drawn) [Example 72, 4-[1-(3,4-Dimethoxybenzoyl)-2-methyl-1,2,3,4-tetrahydroquinolin-4-yl]-3,4-dihydro-2H-1,4-benzothiazine], the melting point was in the range of 113 to 114 °C.

Take `CCOc1ccc(C(=O)N2c3ccccc3C(n3c4ccccc4c4ccccc43)CC2C)cc1OCC` (stereo not drawn) (hydrate or solvate) [Example 144, 2,4-cis-4-(9H-9-Carbazolyl)-1-(3,4-diethoxybenzoyl)-2-methyl-1,2,3,4-tetrahydroquinoline]: the melting point is 240 to 241 °C.

Turning to `CCOc1ccc(C(=O)N2c3ccccc3C(N3CCCc4ccccc43)CC2C)cc1OCC` (stereo not drawn) [Example 102, 1-(3,4-Diethoxybenzoyl)-2-methyl-4-(1,2,3,4-tetrahydroquinolin-1-yl)-1,2,3,4-tetrahydroquinoline], the melting point was 157 to 158 °C.

As to `COc1ccc(C(=O)N2c3ccccc3C(N3CCCc4cc(C(C)C)ccc43)C(O)C2C)cc1OC` (stereo not drawn) [Example 84, 2,3-trans-2,4-cis-1-(3,4-Dimethoxybenzoyl)-3-hydroxy-4-(6-isopropyl-1,2,3,4-tetrahydroquinolin-1-yl)-2-methyl-1,2,3,4-tetrahydroquinoline], the melting point lay within 165 to 166 °C.

`COc1ccc(C(=O)N2c3ccccc3C(n3c4ccccc4c4ccccc43)CC2CCCc2ccccc2)cc1OC` (stereo not drawn) [Example 116, 9-[2,4-cis-1-(3,4-Dimethoxybenzoyl)-2-(3phenylpropyl)-1,2,3,4-tetrahydroquinolin-4-yl]-9H-carbazole] yielded a melting point of 225 to 226 °C.

Regarding `COc1ccc(C(=O)N2c3ccccc3C(N3CCCc4cc(C)ccc43)CC2C)cc1OC` (stereo not drawn) [Example 83, 2,4-cis-1-(3,4-Dimethoxybenzoyl)-2-methyl-4-(6-methyl-1,2,3,4-tetrahydroquinolin-1-yl)-1,2,3,4-tetrahydroquinoline], the melting point was in the range of 184 to 185 °C.

`COc1ccc(C(=O)N2c3ccccc3C(N3CCCc4ccc(C)cc43)CC2C)cc1OC` (stereo not drawn) [Example 81, 2,4-cis-1-(3,4-Dimethoxybenzoyl)-2-methyl-4-(7-methyl-1,2,3,4-tetrahydroquinolin-1-yl)-1,2,3,4-tetrahydroquinoline] returned a melting point of 197 to 198 °C.

`CCCC1CC(N2CCCc3ccccc32)c2ccccc2N1C(=O)c1ccc(OC)c(OC)c1` (stereo not drawn) [Example 75, 2,4-cis-1-(3,4-Dimethoxybenzoyl)-2-propyl-4-(1,2,3,4-tetrahydroquinolin-1-yl)-1,2,3,4-tetrahydroquinoline]: the melting point lay within 176 to 177 °C.

For `CCCC(=O)NCCCC1CC(n2c3ccccc3c3ccccc32)c2ccccc2N1C(=O)c1ccc(OC)c(OC)c1` (stereo not drawn) [Example 122, N-[3-[2,4-cis-4-(9H-9-Carbazolyl)-1-(3,4-dimethoxybenzoyl)-1,2,3,4-tetrahydroquinolin-2-yl]propyl]butanamide], the melting point fell in the range of 199 to 201 °C.

Regarding `CCOC(=O)CCCCC1CC(n2c3ccccc3c3ccccc32)c2ccccc2N1C(=O)c1ccc(OC)cc1` (stereo not drawn) [Example 157, Ethyl 5-[4-(9H-9-carbazolyl)-1-(4-methoxybenzoyl)-1,2,3,4-tetrahydro-2-quinolinyl]pentanoate], the melting point fell in the range of 167 to 168 °C.

Take `COc1ccc(C(=O)N2c3ccccc3C(n3c4ccccc4c4ccccc43)CC2CC(C)C)cc1OC` (stereo not drawn) [Example 41, 2,4-cis-4-(9H-9-Carbazolyl)-1-(3,4-dimethoxybenzoyl)-2-isobutyl-1,2,3,4-tetrahydroquinoline]: the melting point was 191 to 193 °C.

`CCCCC1CC(n2c3ccccc3c3ccccc32)c2ccccc2N1C(=O)c1ccc(SC)c(OC)c1` (stereo not drawn) [Example 151, 2,4-cis-9-[2-Butyl-1-(3-methoxy-4-methylthiobenzoyl)-1,2,3,4-tetrahydro-4-quinolinyl]-9H-carbazole] displayed a melting point of 230 to 231 °C.

The compound `CCCCC1C=C(n2c3ccccc3c3ccccc32)c2ccccc2N1C(=O)c1ccc(OC)c(OC)c1` (stereo not drawn) [Example 59, 2-Butyl-4-(9H-9-carbazolyl)-1-(3,4-dimethoxybenzoyl)-1,2-dihydroquinoline] yielded a melting point of 174 to 175 °C.

`COc1ccc(C(=O)N2c3ccccc3C(n3c4ccccc4c4ccccc43)CC2COCc2ccccc2)cc1OC` (stereo not drawn) [Example 43, 2-[(Benzyloxy)methyl]-4-(9H-9-carbazolyl)-1-(3,4-dimethoxybenzoyl)-1,2,3,4-tetrahydroquinoline] registered a melting point of 203 to 204 °C.

Regarding `CCCCC1CC(n2c3ccccc3c3ccccc32)c2ccccc2N1C(=O)c1ccc(OCC)c(OCC)c1` (stereo not drawn) [Example 149, 2,4-cis-9-[2-Butyl-1-(3,4-diethoxybenzoyl)-1,2,3,4-tetrahydro-4-quinolinyl]-9H-carbazole], the melting point was 232 to 233 °C.

Compound `CCCC1CC(n2c3ccccc3c3ccccc32)c2ccccc2N1C(=O)c1ccc(OCC)c(OC)c1` (stereo not drawn) [Example 146, 2,4-cis-4-(9H-9-Carbazolyl)-1-(4-ethoxy-3-methoxybenzoyl)-2-propyl-1,2,3,4-tetrahydroquinoline] registered a melting point of 221 to 222 °C.

In the case of `CCCCC1CC(N2CCCc3ccccc32)c2ccccc2N1C(=O)c1ccc(OC)c(OC)c1` (stereo not drawn) [Example 77, 2,4-cis-2-Butyl-1-(3,4-dimethoxybenzoyl)-4-(1,2,3,4-tetrahydroquinolin-1-yl)-1,2,3,4-tetrahydroquinoline], the melting point fell in the range of 159 to 160 °C.

In turn, `COc1ccc(C(=O)N2c3ccccc3C(N3CCCc4ccccc43)C(OC(C)=O)C2C)cc1OC` (racemic) [Example 17, 2,3-trans-2,4-cis-3-Acetoxy-1-(3,4-dimethoxybenzoyl)-2-methyl-4-(1,2,3,4-tetrahydroquinolin-1-yl)-1,2,3,4-tetrahydroquinoline] showed a melting point of 130 to 131 °C.

In turn, `CCC1CC(n2c3ccccc3c3ccccc32)c2ccccc2N1C(=O)c1ccc(SC)c(OC)c1` (stereo not drawn) [Example 150, 2,4-cis-9-[2-Ethyl-1-(3-methoxy-4-methylthiobenzoyl)-1,2,3,4-tetrahydro-4-quinolinyl]-9H-carbazole] showed a melting point of 210 to 211 °C.

The compound `COc1ccc(C(=O)N2c3ccccc3C(n3c4ccccc4c4ccccc43)C(O)C2C)cc1OC` (stereo not drawn) (hydrate or solvate) [Example 162, 4-(9H-9-Carbazolyl)-1-(3,4-dimethoxybenzoyl)-3-hydroxy-2-methyl-1,2,3,4-tetrahydroquinoline] registered a melting point of 194 to 195 °C.

With `COc1ccc(C(=O)N2c3ccccc3C(n3c4ccccc4c4ccccc43)CC2CCCO)cc1OC` (stereo not drawn) [Example 118, 3-[2,4-cis-4-(9H-9-Carbazolyl)-1-(3,4-dimethoxybenzoyl)-1,2,3,4-tetrahydroquinolin-2-yl]-1-propanol], the melting point fell in the range of 192 to 194 °C.

In turn, `CCCCC1CC(n2c3ccccc3c3ccccc32)c2ccccc2N1C(=O)c1ccc(OCC)c(OC)c1` (stereo not drawn) [Example 148, 2,4-cis-9-[2-Butyl-1-(4-ethoxy-3-methoxybenzoyl)-1,2,3,4-tetrahydro-4-quinolinyl]-9H-carbazole] yielded a melting point of 231 to 232 °C.

The compound `COc1ccc(C(=O)N2c3ccccc3C(N3CCCc4c(Cl)cccc43)=CC2C)cc1OC` (stereo not drawn) [Example 160, 4-(5-Chloro-1,2,3,4-tetrahydroquinolin-1-yl)-1-(3,4-dimethoxybenzoyl)-2-methyl-1,2-dihydroquinoline] returned a melting point of 162 to 163 °C.

As to `COc1ccc(C(=O)N2c3ccccc3C(n3c4ccccc4c4ccccc43)=CC2C)cc1OC` (stereo not drawn) [Example 161, 4-(9H-9-Carbazolyl)-1-(3,4-dimethoxybenzoyl)-2-methyl-1,2-dihydroquinoline], the melting point is 184 to 185 °C.

`COc1ccc(C(=O)N2c3ccccc3C(N3CCCc4cc(C(C)C)ccc43)CC2C)cc1OC` (stereo not drawn) [Example 85, 2,4-cis-4-(6-Isopropyl-1,2,3,4-tetrahydroquinolin-1-yl)-1-(3,4-dimethoxybenzoyl)-2-methyl-1,2,3,4-tetrahydroquinoline]: the melting point fell in the range of 187 to 188 °C.

As for `COc1ccc(C(=O)N2c3ccccc3C(N3CCSc4ccccc43)CC2C)cc1OC` (racemic) [Example 20, 2,4-cis-4-(3,4-Dihydro-2H-1,4-benzothiazin-4-yl)-1-(3,4-dimethoxybenzoyl)-2-methyl-1,2,3,4-tetrahydroquinoline], the melting point fell in the range of 178 to 180 °C.

(Values after patent US6930104B2, “Heterocyclic derivatives” (Takeda Chemical Industries, Ltd., priority 2001, dated 2005).)
